Laboratory results published in patent US20210380929A1, “METHODS, APPARATUS AND KITS FOR BACTERIAL CELL LYSIS” (TECHNISCHE UNIVERSITÄT WIEN, priority 2018, published 2021).

Tested on: Enterococcus faecalis type strain NCTC 775
Assay type: cell-based

SMILES | 23S rRNA gene copies in 2.5 μl of the DNA extracts | cell lysis efficiency with varying IL concentration
CC(=O)O.CCn1cc[n+](C)c1 [[C2mim]OAc, 1-Ethyl-3-methylimidazolium acetate] | ~6.48±0.02 | almost steadily decreased with its respective concentration
CCCCCC(=O)[O-].C[N+](C)(C)CCO [[Cho]Hex, Choline hexanoate] | ~6.49±0.11 | slightly improved towards a concentration of 50% (w/v), only decreasing with lower concentrations of 30% (w/v) and 10% (w/v)
